Assay results taken from article PMC11460631, “Inhibition of transient receptor potential vanilloid 3 channels by antimalarial hydroxychloroquine alleviates TRPV3-dependent dermatitis” (The Journal of Biological Chemistry, 2024).

Legend:
TRPV3 = molecular target: T1, TRPV3 (Homo sapiens, UniProt Q8NET8); assay: Single-channel recordings of TRPV3 in the inside-out configuration; assay type: cell-based; settings: −80 mV
T1 construct: YFP or GFP; expressed in transfected cells; host or cells: HEK293T
T1 sequence (Q8NET8 1-790): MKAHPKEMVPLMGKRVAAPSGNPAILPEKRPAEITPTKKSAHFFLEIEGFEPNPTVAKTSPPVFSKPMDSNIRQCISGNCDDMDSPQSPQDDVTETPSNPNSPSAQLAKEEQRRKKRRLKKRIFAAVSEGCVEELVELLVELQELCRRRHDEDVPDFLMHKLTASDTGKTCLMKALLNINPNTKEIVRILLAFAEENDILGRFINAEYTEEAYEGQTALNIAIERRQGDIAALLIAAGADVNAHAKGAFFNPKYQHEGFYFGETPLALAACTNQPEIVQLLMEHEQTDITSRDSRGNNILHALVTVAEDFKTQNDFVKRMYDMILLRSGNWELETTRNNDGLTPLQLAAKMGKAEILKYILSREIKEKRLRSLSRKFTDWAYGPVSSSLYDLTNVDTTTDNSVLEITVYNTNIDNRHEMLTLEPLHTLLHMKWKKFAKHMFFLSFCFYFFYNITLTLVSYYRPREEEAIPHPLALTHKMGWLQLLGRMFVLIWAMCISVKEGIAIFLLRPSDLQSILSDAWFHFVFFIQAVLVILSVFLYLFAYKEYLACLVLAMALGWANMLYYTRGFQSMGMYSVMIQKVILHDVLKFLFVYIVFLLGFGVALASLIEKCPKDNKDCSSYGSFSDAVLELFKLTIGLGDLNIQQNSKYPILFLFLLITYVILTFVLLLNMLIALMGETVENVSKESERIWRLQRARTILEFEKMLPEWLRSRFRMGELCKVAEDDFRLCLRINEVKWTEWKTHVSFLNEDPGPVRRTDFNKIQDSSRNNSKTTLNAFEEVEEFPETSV
Description: HEK293T cells are cultured using Dulbecco's modified Eagle's medium containing 10% fetal bovine serum and 1% penicillin-streptomycin in a cell incubator with 5% CO2 at 37 °C. Plasmids of murine TRPV1, TRPV4, TRPM8, and human TRPV3, TRPA1 are labeled with YFP or GFP as indicators for subsequent electrophysiological recordings. Complementary DNA constructs of ion channels were transiently transfected with Lipofectamine 3000 (Invitrogen). And 12 to 18 h after transient transfection, electrophysiological recordings were performed.
Patch-clamp recordings were carried out with a HEKA EPC10 amplifier controlled by PatchMaster software (HEKA; https://www.heka.com/products/products_main.html#soft_pm) ([36]). Patch pipettes were prepared from borosilicate glass and fire-polished to the resistance of 3 to 8 MΩ by P-97 puller for whole-cell recordings. For single-channel recordings, patch pipettes were fire-polished to a higher resistance of 6 to 10 MΩ. Both bath solution and pipette solution contained 130 mM NaCl, 10 mM glucose, 0.2 mM EDTA, and 3 mM Hepes and were adjusted to pH 7.2 to 7.4 with NaOH. Whole-cell recordings and single-channel recordings were performed at ± 80 mV. The current was sampled at 10 kHz and filtered at 2.9 kHz. All recordings were performed at room temperature (25 °C). A gravity-driven system (RSC-200, Bio-Logic) with freely rotated perfusion tubes was used for the perfusion of ligands. Bath and ligand solutions were delivered through separate tubes to minimize the mixing of solutions. Patch pipette holding cells were placed in front of the perfusion tube outlet for perfusion. Igor Pro versions 5.05 and 9.05 (WaveMetrics; https://www.wavemetrics.com/products/igorpro) were used to analyze the data.

C57BL/6J male mice = assay: Carvacrol-induced AD-like mouse model: skin appearance scores and H&E epidermal thickness; assay type: in vivo
Description: We therefore generated a carvacrol-induced AD mouse model to test the effect of HCQ.
To investigate the effect of HCQ on carvacrol-induced dermatitis in animals, C57BL/6J male mice (aged 6 weeks) were obtained from the Animal Experimental Center of Hangzhou Medical College (Hangzhou, Zhejiang Province). Mice were housed and maintained in an environment with a 12-h light/dark cycle and a controlled temperature of 22.0 ± 2.0 °C. Food and water were accessible ad libitum. All the animal procedures were approved by the Institutional Animal Care & Use Committee of Zhejiang Center of Laboratory Animals (ZJCLA).
To generate an AD-like mice model, 2% carvacrol (dissolved in 30% ethanol solution) was topically smeared onto the mice dorsum 1 day after hair removal with a depilatory cream (Vetin Depilatory Cream). Mice received a topical administration of an equal volume (200 μl) of 2% carvacrol or in the presence of 2 mg/ml HCQ. […] After the application of carvacrol for 5 days, the external appearance of mice was photographed and then sampled. The external appearance was graded based on three aspects: thickness, erythema/bleeding, and dryness/desquamation, with severity assessed on a score of 0 to 4. The degree of thickness was measured by the thickness of the skin in H&E staining. Skin tissues were either fixed in 4% paraformaldehyde or placed in PBS buffer containing 1% protease inhibitor, facilitating subsequent steps of paraffin embedding or ELISA experiments.
Mice were sacrificed 24 h after the last dose of treatment. Mouse dorsal skin was removed with scissors and forceps before being fixed with 4% paraformaldehyde. Paraffin-embedded tissues were sectioned and stained with H&E. Pictures of stained sections were acquired with a Nikon Eclipse Ti-S microscope with a charge-coupled device camera (DS-Ri2, Nikon).

SMILES: CCN(CCO)CCCC(C)Nc1ccnc2cc(Cl)ccc12 (stereo not drawn) [HCQ, hydroxychloroquine]
- TRPV3 channel open probability (Po) (TRPV3; 50 μM HCQ with 1 mM 2-APB): 0.50 ± 0.03
- TRPV3 channel open probability (Po) (TRPV3; 100 μM HCQ with 1 mM 2-APB): 0.13 ± 0.04
- single-channel conductance (TRPV3; HCQ with 1 mM 2-APB, HCQ concentration not stated in the sentence (50 and 100 μM tested)): 37.97 ± 2.96 pS
- dry desquamation score (C57BL/6J male mice; score of 0 to 4, topical, 5 days, 2% carvacrol alone or with HCQ 2 mg/ml): 1.50 ± 0.22
- erythema score (C57BL/6J male mice; score of 0 to 4, topical, 5 days, 2% carvacrol alone or with HCQ 2 mg/ml or DXM 1 mg/ml): 1.67 ± 0.33
- epidermal thickness (H&E staining) (C57BL/6J male mice; topical with 2% carvacrol, once a day for 5 days, HCQ 2 mg/ml, DXM 1 mg/ml, 200 μl): 51.49 ± 3.01 μm
